Source: paper PMC10294390 (BMC Complementary Medicine and Therapies, 2023)

Key:
[1] = system: CRL1554 normal human fibroblast cells; experiment: MTT assay, cytotoxicity of PPCs on normal fibroblasts; conditions: PPCs 20-160 µM, 72 h
Method: The cytotoxicity of a panel of 14 PPCs (Kmf, Cur, Que, Rsv, HHG, Hsp, BetA, IC3, Cmr, Sul, Irt, Lyc, Sil, and Snn) on CRL1554 normal human fibroblast cells was determined using the MTT assay [16]. CRL1554 cells were seeded (27 × 10^3 cells/well) into 96-well flat-bottomed plates and incubated at 37 °C for 18 h. Subsequently, the medium was removed, and the cells were washed with Hanks balanced salt solution (HBSS; 100 µl/well), and treated with various concentrations of PPCs (20, 40, 60, 80, 100, 120, 140 and 160 µM) for 72 h. The cells were then washed twice with HBSS, and 100 μl medium with 20 µl (5 mg/ml) MTT solution in PBS was added to each well and incubated at 37 °C for 4 h. The supernatants were aspirated, and 200 μL of dimethyl sulfoxide (DMSO) was added to dissolve the formazan crystals. Finally, the absorbance was measured using a multiwell spectrophotometer at two wavelengths (λ, 492 and 570 nm).

DLD-1 colon tumor model = system: DLD-1 colon tumor model; design: method as in PMID 14692718; conditions: cited from earlier work
[2] = system: SW837 human rectum cancer cell line; experiment: MTT assay, single and schedule-dependent combined treatment; format: cell-based; conditions: Homo sapiens, SW837, SW837; PPC alone; MTT; Fig. 1C; read-out: IC50
Method: (§1) The plates were washed, and PPCs [Cur, Kmf, or Que (60 or 120 µM), or Rsv (40 or 80 µM)] were added, followed by incubation at 37 °C for 48 h. For inverted sequential treatment, PPC [Cur, Kmf, or Que (60 or 120 µM), or Rsv (40 or 80 µM)] was added and incubated at 37 °C for 24 h. […] Cell growth was monitored as previously described.

[3] = system: SW1116 human colon cancer cell line; experiment: as above; format: cell-based; conditions: Homo sapiens, SW 1116, PPC alone, MTT, Fig. 1B
Method: as §1

Compound	cytotoxicity [1]	also measured
COc1cc(C2Oc3cc([C@H]4Oc5cc(O)cc(O)c5C(=O)[C@@H]4O)ccc3OC2CO)ccc1O (stereo partly shown) [Sin, silibinin]	0.0–5.54%	–
CCc1c2c(nc3ccc(OC(=O)N4CCC(N5CCCCC5)CC4)cc13)-c1cc3c(c(=O)n1C2)COC(=O)[C@]3(O)CC [Irt, irinotecan]	44.9–81.9%	delay of tumor cell growth (DLD-1 colon tumor model): 71%
Oc1ccc(/C=C/c2cc(O)cc(O)c2)cc1 [Rsv, resveratrol]	0.0–3.3%	cytotoxicity ([1]; listed as resveratrol): ≤ 20%; IC50 [2]: 140 µM; IC50 [3]: 70 µM
OCc1c[nH]c2ccccc12 [I3C, indol-3-carbinol]	0.2–9.2%	–
CC1=C(CC(=O)O)c2cc(F)ccc2/C1=C\c1ccc([S+](C)[O-])cc1 (stereo not shown) [Sul, sulanidac]	38.94–98%	–
COc1ccc([C@@H]2CC(=O)c3c(O)cc(O)cc3O2)cc1O [Hsp, hesperetin]	0.0–4.4%	–
